pKd: −log10 of the molar value.
Key:
[1] = biological target: T1, Retinoic acid receptor alpha (Homo sapiens, UniProt P10276); test: Binding affinity for baculovirus-expressed Retinoic acid receptor RAR alpha
T1 sequence (P10276 whole entry): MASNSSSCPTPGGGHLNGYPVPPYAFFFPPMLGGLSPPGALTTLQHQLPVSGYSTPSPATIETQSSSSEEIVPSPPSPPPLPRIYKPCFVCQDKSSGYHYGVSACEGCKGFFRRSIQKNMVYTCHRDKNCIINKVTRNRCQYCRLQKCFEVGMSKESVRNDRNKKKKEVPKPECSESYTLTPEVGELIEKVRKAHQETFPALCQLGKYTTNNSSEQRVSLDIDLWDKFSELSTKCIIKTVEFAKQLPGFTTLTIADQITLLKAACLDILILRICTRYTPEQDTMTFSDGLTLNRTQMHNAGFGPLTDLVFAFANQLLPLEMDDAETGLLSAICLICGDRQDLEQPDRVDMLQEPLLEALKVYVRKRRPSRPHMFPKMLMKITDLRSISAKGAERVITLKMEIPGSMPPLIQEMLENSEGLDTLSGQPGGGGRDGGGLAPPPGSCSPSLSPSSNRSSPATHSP

[2] = biological target: T2, Retinoic acid receptor gamma (Homo sapiens, UniProt P13631); test: Binding affinity for baculovirus-expressed Retinoic acid receptor RAR gamma
T2 sequence (P13631 whole entry): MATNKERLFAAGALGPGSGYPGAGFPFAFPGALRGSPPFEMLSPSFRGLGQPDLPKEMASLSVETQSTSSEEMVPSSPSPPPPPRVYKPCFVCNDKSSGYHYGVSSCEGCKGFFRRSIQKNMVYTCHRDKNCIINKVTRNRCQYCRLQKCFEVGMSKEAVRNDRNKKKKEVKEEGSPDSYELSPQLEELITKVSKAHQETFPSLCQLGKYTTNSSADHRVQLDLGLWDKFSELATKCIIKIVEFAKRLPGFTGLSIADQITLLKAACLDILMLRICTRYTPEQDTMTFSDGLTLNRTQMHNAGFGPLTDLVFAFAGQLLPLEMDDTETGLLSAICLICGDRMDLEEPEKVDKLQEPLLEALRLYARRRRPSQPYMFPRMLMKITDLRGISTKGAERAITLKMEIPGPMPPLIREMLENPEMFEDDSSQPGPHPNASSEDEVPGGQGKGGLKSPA

[3] = biological target: T3, Retinoic acid receptor beta (Homo sapiens, UniProt P10826); test: Binding affinity for baculovirus-expressed Retinoic acid receptor RAR beta
T3 sequence (P10826 whole entry): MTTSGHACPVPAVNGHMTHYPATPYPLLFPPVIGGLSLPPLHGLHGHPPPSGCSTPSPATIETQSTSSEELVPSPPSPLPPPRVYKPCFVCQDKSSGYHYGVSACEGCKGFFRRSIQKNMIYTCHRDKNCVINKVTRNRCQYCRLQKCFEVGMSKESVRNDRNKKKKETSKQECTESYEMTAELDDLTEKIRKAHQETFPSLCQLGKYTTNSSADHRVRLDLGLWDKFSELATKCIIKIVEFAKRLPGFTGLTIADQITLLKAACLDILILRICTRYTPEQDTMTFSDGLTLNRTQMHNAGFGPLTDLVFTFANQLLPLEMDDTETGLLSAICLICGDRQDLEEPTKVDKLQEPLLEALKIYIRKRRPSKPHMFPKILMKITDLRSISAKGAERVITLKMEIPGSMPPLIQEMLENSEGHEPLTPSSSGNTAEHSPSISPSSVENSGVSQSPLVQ

SMILES: CC1(C)CCC(C)(C)c2c1cc(C(=O)Nc1ccc(C(=O)O)c(F)c1)c(O)c2Br
- pKd [1]: 8.36
- pKd [2]: < 4.52
- pKd [3]: 5.52

SMILES: CC1(C)CCC(C)(C)c2c1cc(C(=O)Nc1cc(F)c(C(=O)O)c(F)c1)c(O)c2Br
- pKd [1]: 8.08
- pKd [2]: < 4.52
- pKd [3]: 4.76

Reference: ChEMBL document CHEMBL1129255, “Identification of a retinoic acid receptor alpha subtype specific agonist” (J Med Chem, 1996)
